Molecules are shown by their SMILES.

One assay concerns the target T1, JAK3 (Homo sapiens, UniProt P52333).
T1 construct: purchased Thermo fisher PV3855
Put plainly: JAK3 biochemical assay (ADP-GLO Kinase Assay). The conditions noted are these: for IC50: B*: testing performed in a first testing facility, read-out: JAK3 IC50 (nM) Relative, B*; for JAKs/HPK1 IC50 Ratio, B*: ratio of JAK3 IC50 to HPK1 IC50, first testing facility. An outline of the steps:
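Human JAK3 (0.78 ng) with 0.2 μg/μL Poly(E4Y1) and 4 μM ATP in 40 mM Tris pH 7.5, 20 mM MgCl2, 0.1 mg/ml BSA, 50 μM DTT, 1% DMSO; 60 min at 25 °C. ADP formed read by ADP-Glo luminescence. 10-dose 3-fold series from 10 μM; IC50 by three-parameter logistic fit.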
Background: In ADP-Glo the light output rises with the ADP produced.

Another assay deals with HPK1 (Homo sapiens, UniProt Q92918). Kind of assay: HPK1 biochemical assay (ADP-GLO Kinase Assay). The conditions noted are these: B*: testing performed in a first testing facility; read-out: HPK1 IC50 (nM) Relative, B*. The method in brief: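 HPK1 (0.6 ng/μL final) activity was followed with MBP substrate and 10 μM ATP in Tris pH 7.5/MgCl2/BSA/DTT buffer, measured by ADP-Glo luminescence. Compounds were tested as 3-fold dilutions from 10 μM. IC50 came from a three-parameter logistic fit, with inhibition normalised to high/low controls.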
HPK1, sequence (Q92918 whole entry): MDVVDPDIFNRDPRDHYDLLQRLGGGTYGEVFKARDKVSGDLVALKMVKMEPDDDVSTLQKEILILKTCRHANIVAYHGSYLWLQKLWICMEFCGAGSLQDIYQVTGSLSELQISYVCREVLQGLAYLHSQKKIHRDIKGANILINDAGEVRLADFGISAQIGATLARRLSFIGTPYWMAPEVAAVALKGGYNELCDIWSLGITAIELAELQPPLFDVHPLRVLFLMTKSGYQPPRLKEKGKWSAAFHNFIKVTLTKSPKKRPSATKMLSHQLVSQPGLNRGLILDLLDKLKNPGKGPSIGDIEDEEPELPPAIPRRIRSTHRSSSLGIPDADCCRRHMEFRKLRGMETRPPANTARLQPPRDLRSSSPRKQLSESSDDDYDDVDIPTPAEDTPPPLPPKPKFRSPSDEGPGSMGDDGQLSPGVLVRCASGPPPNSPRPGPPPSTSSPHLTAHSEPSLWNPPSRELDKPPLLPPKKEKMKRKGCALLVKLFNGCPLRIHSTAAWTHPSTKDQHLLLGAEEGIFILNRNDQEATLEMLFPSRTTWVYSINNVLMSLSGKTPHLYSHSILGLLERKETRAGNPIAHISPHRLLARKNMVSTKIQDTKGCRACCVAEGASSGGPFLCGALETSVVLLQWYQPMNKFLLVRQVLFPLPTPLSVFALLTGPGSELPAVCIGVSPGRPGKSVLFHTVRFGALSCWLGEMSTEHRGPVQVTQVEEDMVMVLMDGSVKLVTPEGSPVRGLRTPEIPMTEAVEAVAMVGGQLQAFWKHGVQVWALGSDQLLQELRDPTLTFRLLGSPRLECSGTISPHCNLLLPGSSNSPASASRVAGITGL

T1 sequence (P52333 781-1124 limits assumed): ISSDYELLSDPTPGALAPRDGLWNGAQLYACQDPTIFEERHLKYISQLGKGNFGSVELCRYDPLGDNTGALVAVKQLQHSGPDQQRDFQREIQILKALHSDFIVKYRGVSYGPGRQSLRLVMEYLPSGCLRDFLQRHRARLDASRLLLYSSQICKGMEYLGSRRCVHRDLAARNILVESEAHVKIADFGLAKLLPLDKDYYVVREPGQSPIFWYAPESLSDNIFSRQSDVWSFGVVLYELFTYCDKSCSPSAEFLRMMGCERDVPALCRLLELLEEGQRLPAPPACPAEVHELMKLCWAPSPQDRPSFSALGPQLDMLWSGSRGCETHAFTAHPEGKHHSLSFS

On to `CNC(=O)C1CN(c2nc(Nc3cc4c(cc3OC)CCN(C)C4)ncc2Cl)c2ccccc21` (stereo not drawn) [Example 97, 1-(5-Chloro-2-((6-methoxy-2-methyl-1,2,3,4-tetrahydroisoquinolin-7-yl)amino)pyrimidin-4-yl)-N-methylindoline-3-carboxamide], for which, on JAK3, the IC50 (in general, the concentration at which inhibition is half-maximal) is more than 1000 nM and the “JAKs/HPK1 IC50 Ratio, B*” value is recorded as 800. In addition, on HPK1, the IC50 is not above 100 nM.
For `COc1cc2c(cc1Nc1ncc(Cl)c(N3CC(C(=O)NS(C)(=O)=O)c4ccccc43)n1)CN(C)CC2` (stereo not drawn) [Example 98], in that order: more than 1000 nM, 508 and not above 100 nM.
As for `COc1cc2c(cc1Nc1ncc(Cl)c(N3CC(C#N)c4ccccc43)n1)CN(C)CC2` (stereo not drawn) [Example 99, 1-(5-Chloro-2-((6-methoxy-2-methyl-1,2,3,4-tetrahydroisoquinolin-7-yl)amino)pyrimidin-4-yl)indoline-3-carbonitrile], on JAK3, the IC50 was not above 100 nM and the “JAKs/HPK1 IC50 Ratio, B*” value is given as 100. Also, the IC50 at HPK1 was not above 100 nM.
As for `COc1cc2c(cc1Nc1ncc(Cl)c(N3CC(c4nn[nH]n4)c4ccccc43)n1)CN(C)CC2` (stereo not drawn) [Example 100, N-(4-(3-(2H-tetrazol-5-yl)indolin-1-yl)-5-chloropyrimidin-2-yl)-6-methoxy-2-methyl-1,2,3,4-tetrahydroisoquinolin-7-amine], the IC50 is 100 to 500 nM at JAK3 and not above 100 nM on HPK1. Further, the “JAKs/HPK1 IC50 Ratio, B*” value on JAK3 was 200.
With `COc1cc2c(cc1Nc1ncc(Cl)c(N3CC(C(=O)NO)c4ccccc43)n1)CN(C)CC2` (stereo not drawn) [Example 101, 1-(5-Chloro-2-((6-methoxy-2-methyl-1,2,3,4-tetrahydroisoquinolin-7-yl)amino)pyrimidin-4-yl)-N-hydroxyindoline-3-carboxamide], the figures for the IC50 on JAK3 and at HPK1 were more than 1000 nM and not above 100 nM, respectively. Also, on JAK3, the “JAKs/HPK1 IC50 Ratio, B*” value was found to be 373.
Consider `COc1cc2c(cc1Nc1ncc(Cl)c(N3CC(C(=O)N(C)O)c4ccccc43)n1)CN(C)CC2` (stereo not drawn) [Example 102], for which, at JAK3, the IC50 was more than 1000 nM and the “JAKs/HPK1 IC50 Ratio, B*” value is more than 2603. The IC50 on HPK1 is not above 100 nM.
The like results for `CONC(=O)C1CN(c2nc(Nc3cc4c(cc3OC)CCN(C)C4)ncc2Cl)c2ccccc21` (stereo not drawn) [Example 103, 1-(5-Chloro-2-((6-methoxy-2-methyl-1,2,3,4-tetrahydroisoquinolin-7-yl)amino)pyrimidin-4-yl)-N-methoxyindoline-3-carboxamide] were, in that order, 500 to 1000 nM, 540 and not above 100 nM.
For `COc1cc2c(cc1Nc1ncc(Cl)c(N3CC(C(=O)O)c4cc(F)ccc43)n1)CN(C)CC2` (stereo not drawn) [Example 104], in that order: not above 100 nM, 45 and not above 100 nM.
For `COc1cc2c(cc1Nc1ncc(Cl)c(N3CC(C(=O)O)c4ccc(F)cc43)n1)CN(C)CC2` (stereo not drawn) [Example 105], in that order: 100 to 500 nM, 140 and not above 100 nM.
On to `COc1ccc2c(c1)N(c1nc(Nc3cc4c(cc3OC)CCN(C)C4)ncc1Cl)CC2C(=O)O` (stereo not drawn) [Example 107, 1-(5-Chloro-2-((6-methoxy-2-methyl-1,2,3,4-tetrahydroisoquinolin-7-yl)amino)pyrimidin-4-yl)-6-methoxyindoline-3-carboxylic acid], for which, at JAK3, the IC50 is more than 1000 nM and the “JAKs/HPK1 IC50 Ratio, B*” value was 2200. The IC50 at HPK1 was not above 100 nM.
For the molecule `COc1cc2c(cc1Nc1ncc(Cl)c(N3CC(C(=O)O)c4c(OC)cccc43)n1)CN(C)CC2` (stereo not drawn) [Example 108, 1-(5-Chloro-2-((6-methoxy-2-methyl-1,2,3,4-tetrahydroisoquinolin-7-yl)amino)pyrimidin-4-yl)-4-methoxyindoline-3-carboxylic acid], the IC50 at JAK3 was more than 1000 nM; at HPK1, not above 100 nM. In addition, the “JAKs/HPK1 IC50 Ratio, B*” value at JAK3 is recorded as 886.
For `COc1cc2c(cc1Nc1ncc(F)c(N3CC(C(=O)O)c4ccccc43)n1)CN(C)CC2` (stereo not drawn) [Example 109, 1-(5-Fluoro-2-((6-methoxy-2-methyl-1,2,3,4-tetrahydroisoquinolin-7-yl)amino)pyrimidin-4-yl)indoline-3-carboxylic acid], in that order: 500 to 1000 nM, not above 100 nM and 269.
The like results for `COc1cc2c(cc1Nc1ncc(C#N)c(N3CC(C(=O)O)c4ccccc43)n1)CN(C)CC2` (stereo not drawn) [Example 110, 1-(5-Cyano-2-((6-methoxy-2-methyl-1,2,3,4-tetrahydroisoquinolin-7-yl)amino)pyrimidin-4-yl)indoline-3-carboxylic acid] were, in that order, more than 1000 nM, not above 100 nM and 477.
For `COC(=O)C1CN(c2nc(Nc3cc4c(cc3OC)CCN(C)C4)ncc2C(F)F)c2ccccc21` (stereo not drawn) [Example 112], in that order: more than 1000 nM, not above 100 nM and more than 3309.
`COc1cc2c(cc1Nc1ncc(Cl)c(-n3nc(C(=O)O)c4ccccc43)n1)CN(C)CC2` [Example 113]: on JAK3, the half-maximal inhibitory concentration (IC50) is more than 1000 nM and the “JAKs/HPK1 IC50 Ratio, B*” value was found to be 293. Besides, on HPK1, the IC50 was not above 100 nM.
For the molecule `COC(=O)C1CN(c2nc(Nc3cc4c(cc3OC)CCN(C)C4)ncc2Cl)c2ccccc21` (stereo not drawn) [Example 115, Methyl 1-(5-chloro-2-((6-methoxy-2-methyl-1,2,3,4-tetrahydroisoquinolin-7-yl)amino)pyrimidin-4-yl)indoline-3-carboxylate], on JAK3, the IC50 was more than 1000 nM and the “JAKs/HPK1 IC50 Ratio, B*” value is 1275. In addition, the IC50 at HPK1 is not above 100 nM.
The like results for `COC(=O)C1(C)CN(c2nc(Nc3cc4c(cc3OC)CCN(C)C4)ncc2Cl)c2ccccc21` (stereo not drawn) [Example 116] were, in that order, more than 1000 nM, 890 and not above 100 nM.
The like results for `COc1cc2c(cc1Nc1ncc(Cl)c(N3CC(C)(C(N)=O)c4ccccc43)n1)CN(C)CC2` (stereo not drawn) [Example 120, 1-(5-Chloro-2-((6-methoxy-2-methyl-1,2,3,4-tetrahydroisoquinolin-7-yl)amino)pyrimidin-4-yl)-3-methylindoline-3-carboxamide] were, in that order, not above 100 nM, 120 and not above 100 nM.
For `COc1cc2c(cc1Nc1ncc(Cl)c(N3CC(C)(C#N)c4ccccc43)n1)CN(C)CC2` (stereo not drawn) [Example 121, 1-(5-Chloro-2-((6-methoxy-2-methyl-1,2,3,4-tetrahydroisoquinolin-7-yl)amino)pyrimidin-4-yl)-3-methylindoline-3-carbonitrile], in that order: not above 100 nM, 50 and not above 100 nM.
With `CNC(=O)C1(C)CN(c2nc(Nc3cc4c(cc3OC)CCN(C)C4)ncc2Cl)c2ccccc21` (stereo not drawn) [Example 122], at JAK3, the IC50 was not above 100 nM and the “JAKs/HPK1 IC50 Ratio, B*” value was 100. Also, on HPK1, the IC50 was not above 100 nM.
`COc1cc2c(cc1Nc1ncc(Cl)c(N3CC(C)(CO)c4ccccc43)n1)CN(C)CC2` (stereo not drawn) [Example 123]: at JAK3, the IC50 is not above 100 nM and the “JAKs/HPK1 IC50 Ratio, B*” value was found to be 60. The IC50 on HPK1 is not above 100 nM.
As to `COc1cc2c(cc1Nc1ncc(Cl)c(N3CC(C)(C(=O)O)c4cc(F)ccc43)n1)CN(C)CC2` (stereo not drawn) [Example 125], on JAK3, the concentration for half-maximal inhibition (IC50) is not above 100 nM and the “JAKs/HPK1 IC50 Ratio, B*” value is reported as 6. Moreover, the IC50 on HPK1 was not above 100 nM.
In the case of `COc1cc2c(cc1Nc1ncc(Cl)c(N3CC(C)(C(=O)O)c4ccc(F)cc43)n1)CN(C)CC2` (stereo not drawn) [Example 126], on JAK3, the IC50 is not above 100 nM and the “JAKs/HPK1 IC50 Ratio, B*” value was determined as 9. For the same molecule, the IC50 on HPK1 is not above 100 nM.
Take `COc1cc2c(cc1Nc1ncc(Cl)c(N3CC(CC(=O)O)c4ccccc43)n1)CN(C)CC2` (stereo not drawn) [Example 128]: at JAK3, the IC50 is 100 to 500 nM and the “JAKs/HPK1 IC50 Ratio, B*” value is given as 280. In addition, the IC50 on HPK1 is not above 100 nM.
For `COc1cc2c(cc1Nc1ncc(Cl)c(-n3cc(CC(=O)O)c4ccccc43)n1)CN(C)CC2` [Example 129], in that order: 500 to 1000 nM, 640 and not above 100 nM.
For `COc1cc2c(cc1Nc1ncc(Cl)c(-n3cc(CC(=O)OC(C)C)c4ccccc43)n1)CN(C)CC2` [Example 130, Isopropyl 2-(1-(5-chloro-2-((6-methoxy-2-methyl-1,2,3,4-tetrahydroisoquinolin-7-yl)amino)pyrimidin-4-yl)-1H-indol-3-yl)acetate], in that order: more than 1000 nM, more than 243 and not above 100 nM.
For `COc1cc2c(cc1Nc1ncc(Cl)c(-n3cc(CC(N)=O)c4ccccc43)n1)CN(C)CC2` [Example 133], on JAK3, the IC50 is more than 1000 nM and the “JAKs/HPK1 IC50 Ratio, B*” value was 870. Also, the IC50 at HPK1 is not above 100 nM.
For `COc1cc2c(cc1Nc1ncc(Cl)c(-n3cc(CC#N)c4ccccc43)n1)CN(C)CC2` [Example 134], in that order: 500 to 1000 nM, 243 and not above 100 nM.
For `COc1cc2c(cc1Nc1ncc(Cl)c(-n3cc(Cc4nn[nH]n4)c4ccccc43)n1)CN(C)CC2` [Example 135, N-(4-(3-((2H-tetrazol-5-yl)methyl)-1H-indol-1-yl)-5-chloropyrimidin-2-yl)-6-methoxy-2-methyl-1,2,3,4-tetrahydroisoquinolin-7-amine], in that order: 500 to 1000 nM, 269 and not above 100 nM.

The record behind these values is patent publication US12612424B2, “HPK1 inhibitors and uses thereof” (Regor Pharmaceuticals, Inc., priority 2019, dated 2026).
